Experimental findings from patent US7629135B2, “Toll-like receptor agonists and antagonists and methods of use thereof” (The Board of Trustees of the University of Illinois, priority 2006, dated 2009) are described below.

For assay [1], the target named is T1, TLR2:Fc fusion protein (Homo sapiens, UniProt O60603).
T1 construct: measured in an ELISA-like assay using a TLR2 extracellular domain:Fc fragment fusion protein; made in house; host or cells: CHO cells (pFuse-Fc vector, InvivoGen), purified from culture supernatant on protein A
Briefly: SAA-TLR2 interaction, ELISA-like binding assay. As to conditions: 0.0625 to 8 μg/ml ligand coated, 2 μg/ml TLR2:Fc. An excerpt:
Another example of a method for screening antagonists that disrupt the SAA/TLR2 interaction involves a binding assay that includes a TLR2 ectodomain (extracellular domain) fused to an Fc fragment of immunoglobulin (TLR2:Fc), such as the assay used in FIG. 9B. This assay is typically used as a follow-up or secondary assay to that assay described above. In other words, any compounds collected from the assay described above are subjected to the TLR2:Fc-based binding assay to confirm that the antagonistic effect is on the disruption of SAA-TLR2 binding. This method is generally carried out as follows and is also described in the Examples. A TLR2:Fc fusion protein is generated such that the N-terminal 588 amino acids of human TLR2 are fused in frame to the Fc portion of mouse IgG2a. The cDNA encoding for the resulting chimeric protein is cloned in pFuse-Fc vector (InvivoGen), and stably transfected into CHO cells. […] Absorbance at 450 nm is measured on a SpectraMax 340 plate reader (Molecular Devices).
Assays for SAA-TLR2 interaction: The TL2:Fc fusion protein was generated such that the N-terminal 588 amino acids of human TLR2 protein were fused in frame with the Fc portion of mouse IgG2a. […] Absorbance at 450 nm was measured on a SpectraMax 340 plate reader (Molecular Devices). […]

Assay [2] has as its system TLR2-HeLa cells. Briefly: MAP kinase phosphorylation and IκBα degradation in TLR2-HeLa cells (Western blotting). The assay is classed as cell-based, human. As to conditions: mock-transfected HeLa cells, 10 min; SAA 1 μM, Pam3CSK4 1 μg/ml. The method, then:
FIG. 8 is a series of protein gels and corresponding Western blotting graphs showing that SAA-induced TLR2-dependent signaling in transfected cells. Serum-starved TLR2-HeLa and mock-transfected HeLa cells were stimulated with SAA (1 μM) or Pam3CSK4 (1 μg/ml) for the indicated time. The phosphorylation level of ERK1/2 (A), p38 (B) and JNK (C) was detected by Western blotting using antibodies recognizing the phosphorylated forms of the MAP kinases (blots). (D) The level of cytoplasmic IκB ? was detected by Western blotting using an anti-IκB ? antibody and the β-actin levels in the corresponding samples were shown as loading controls. […] A representative set of data, from 3 repeating experiments, is presented.

T1 sequence (O60603 21-588 limits assumed): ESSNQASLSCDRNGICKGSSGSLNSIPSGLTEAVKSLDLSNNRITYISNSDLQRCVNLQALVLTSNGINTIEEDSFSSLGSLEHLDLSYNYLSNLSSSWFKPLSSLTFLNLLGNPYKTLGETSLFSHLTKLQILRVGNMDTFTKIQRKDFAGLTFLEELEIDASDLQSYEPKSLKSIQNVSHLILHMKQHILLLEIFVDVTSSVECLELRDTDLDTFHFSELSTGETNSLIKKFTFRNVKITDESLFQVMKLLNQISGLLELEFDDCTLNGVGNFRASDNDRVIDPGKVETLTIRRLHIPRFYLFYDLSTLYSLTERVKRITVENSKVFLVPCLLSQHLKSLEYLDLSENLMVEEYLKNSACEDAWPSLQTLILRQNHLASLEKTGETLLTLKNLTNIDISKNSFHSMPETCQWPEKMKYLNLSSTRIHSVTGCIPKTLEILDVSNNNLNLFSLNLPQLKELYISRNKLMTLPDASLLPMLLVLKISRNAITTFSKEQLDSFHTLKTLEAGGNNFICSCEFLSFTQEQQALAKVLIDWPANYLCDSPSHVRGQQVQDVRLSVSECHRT

For Pam3CSK4 [reference compound], the “binding to TLR2:Fc fusion protein” value in assay [1] is “directly bind to the ectodomain”. Further, the “ERK1/2 phosphorylation in mock-transfected cells” value in assay [2] is given as “not”.
